37 compounds from US20200223837A1, “BENZOFURAN AMIDES AND HETEROAROMATIC ANALOGUES THEREOF FOR USE IN THERAPY” (European Molecular Biology Laboratory, priority 2017, published 2020) can be followed below.

Usually EC50 stands for the concentration at which the effect is half-maximal.

SMILES strings stand for the structures. Counter-ions that a name gives are not always drawn.

The assay deals with EGR1 promoter. Briefly: EGR1 reporter assay (luciferase) in genomically engineered HeLa cell line. Conditions: Homo sapiens; EGR1 reporter HeLa cells, luciferase activity after 24 hours with compound. It counts as cell-based. From the text:
The compounds of the present invention can be characterized for their effect on expression of egr1 (early growth response protein 1) using an EGR1 reporter cell line.
The HeLa cell line was genetically modified to provide a simple, robust and highly reproducible cell-based assay reporting the activity of an endogenous EGR1 promoter. In brief, a construct encoding EGFP and luciferase proteins, separated by a self-cleaving P2A peptide was inserted, using CRISPR, immediately downstream (3′) to the promoter of endogenous EGR1. Upon treatment with compounds, cells express EGFP and luciferase from EGR1 promoter, which can be readily detected either in live cells using microscopy or cytometry, or through detection of luciferase activity in cell lysates.
To achieve stable genomic integration of an EGR1-promoter dual reporter, two plasmids were generated: one contained the reporter construct (eGFP-P2A-luciferase) flanked by homology arms that direct insertion into genomic DNA, by homologous recombination, of a break in genomic DNA generated by guide RNA targeted cleavage by Cas9 endonuclease. The gRNA expressing plasmid was based on px330 (56), into which a gRNA sequence that targets a break in gDNA close to the start codon of EGR1 was cloned. The left homology arm (encoding part of EGR1 promoter adjacent to its start codon) and right homology arm (encoding […] of start codon of EGR1) were cloned from gDNA using the following primers: […]
The present compounds can be tested, e.g. by using a HeLa cell line carrying an EGR1 reporter construct which allows for expression of luciferase and eGFP (enhanced GFP) controlled by the EGR1 promoter. For this reporter cells are seeded in the wells of a 384 well microtiter plate at a density of 2000 cells per well in 48 μl of DMEM supplemented with 4.5 g/l glucose, 2 mM glutamine and 10% FCS and are incubated for 24 hours at 37° C. with 5% CO2 and 95% humidity. Then, an eleven point 1:3 serial dilution of each test compound, from an initial concentration of 100 μM, is prepared in DMSO and the dilutions are added to the cells in a volume of 2 μl per well. The cells are incubated for a further 24 hours, after which the luciferase activity of each well is determined by addition of 25 μl of luciferase substrate reaction mixture (Britelite™ plus, Perkin Elmer) and measuring the bioluminescence light output (EnVision Xcite plate reader, PerkinElmer).
The compound of example 64 served as a positive control for this EGR1 reporter assay. The compound of example 64 had been identified in an initial high throughput screening campaign.
A general note: A reporter such as luciferase makes a cellular process visible.
`CCc1ccc2c(CC(=O)Nc3nc(C)cs3)coc2c1` [Example 35, 2-(6-Ethylbenzofuran-3-yl)-N-(4-methylthiazol-2-yl)acetamide]: the EC50 lay in the range of 0.01 to 10 µM.
As for `CC(=O)c1csc(NC(=O)Cc2coc3cc(C)ccc23)n1` [Example 24, N-(4-Acetylthiazol-2-yl)-2-(6-methylbenzofuran-3-yl)acetamide], the figure is 0.01 to 10 µM; as for `CCc1ccc2c(CC(=O)Nc3nc(-c4ccc(CNC(C)=O)cc4)cs3)coc2c1` [Example 30, N-[4-[4-(Acetamidomethyl)phenyl]thiazol-2-yl]-2-(6-ethylbenzofuran-3-yl)acetamide], 0.01 to 10 µM.
As for `Cc1ccc2c(CCC(=O)Nc3ncc(C(F)(F)F)s3)coc2c1C` [Example 61, 3-(6,7-Dimethylbenzofuran-3-yl)-N-[5-(trifluoromethyl)thiazol-2-yl]propanamide], the figure is 0.01 to 10 µM.
In the case of `Cc1ccc2occ(CC(=O)Nc3ncc(C(F)(F)F)s3)c2c1` [Example 4, 2-(5-Methylbenzofuran-3-yl)-N-[5-(trifluoromethyl)thiazol-2-yl]acetamide], the EC50 lay in the range of 10 to 100 µM.
In the case of `CNC(=O)c1nc(NC(=O)Cc2coc3c(C)c(C)ccc23)sc1C(F)(F)F` [Example 103, 2-(2-(6,7-dimethylbenzofuran-3-yl)acetamido)-N-methyl-5-(trifluoromethyl)thiazole-4-carboxamide], the EC50 is 10 to 100 µM.
In the case of `COc1ccc2c(CC(=O)N(c3ccc(C(C)=O)cc3)c3nc4ccccc4s3)coc2c1` [Example 68, N-(4-Acetylphenyl)-N-(1,3-benzothiazol-2-yl)-2-(6-methoxybenzofuran-3-yl)acetamide], the EC50 lay in the range of 0.01 to 10 µM.
For `N#Cc1cnc(NC(=O)Cc2coc3cc(Cl)ccc23)s1` [Example 46, 2-(6-Chlorobenzofuran-3-yl)-N-(5-cyanothiazol-2-yl)acetamide] the value was 0.01 to 10 µM.
For `Cc1cc2occ(CC(=O)Nc3nc(-c4ccccn4)cs3)c2cc1C` [Example 9, 2-(5,6-Dimethylbenzofuran-3-yl)-N-[4-(2-pyridyl)thiazol-2-yl]acetamide] the value was 10 to 100 µM; for `COc1ccc(OC)c(-c2csc(NC(=O)Cc3coc4cc(OC)ccc34)n2)c1` [Example 14, N-[4-(2,5-Dimethoxyphenyl)thiazol-2-yl]-2-(6-methoxybenzofuran-3-yl)acetamide], 10 to 100 µM.
For `Cc1cnc(NC(=O)Cc2coc3c(C)c(Cl)ccc23)s1` [Example 92, 2-(6-Chloro-7-methyl-benzofuran-3-yl)-N-(5-methylthiazol-2-yl)acetamide] the value was 0.01 to 10 µM; for `Cc1cnc(NC(=O)Cc2coc3cc(Cl)ccc23)s1` [Example 15, 2-(6-Chlorobenzofuran-3-yl)-N-(5-methylthiazol-2-yl)acetamide], 10 to 100 µM; for `NCc1ccc(-c2csc(NC(=O)Cc3coc4cc5c(cc34)CCC5)n2)o1` [Example 100, hydrochloride salt], 0.01 to 10 µM.
With `Cc1cnc(NC(=O)Cc2coc3c(C)c(C)ccc23)s1` [Example 88, 2-(6,7-Dimethylbenzofuran-3-yl)-N-(5-methylthiazol-2-yl)acetamide], the EC50 was in the range of 0.01 to 10 µM.
For `NC(=O)c1cnc(NC(=O)Cc2coc3cc4c(cc23)CCC4)s1` [Example 18, 2-[[2-(6,7-Dihydro-5H-cyclopenta[f]benzofuran-3-yl)acetyl]amino]thiazole-5-carboxamide] the value was 10 to 100 µM; for `Cc1cnc(NC(=O)Cc2coc3c(C)c(C)ccc23)[nH]1` [Example 22, 2-(6,7-Dimethylbenzofuran-3-yl)-N-(5-methyl-1H-imidazol-2-yl)acetamide], 10 to 100 µM.
With `O=C(Cc1coc2c(F)c(F)ccc12)Nc1ncc(C(F)(F)F)s1` [Example 39, 2-(6,7-Difluorobenzofuran-3-yl)-N-[5-(trifluoromethyl)thiazol-2-yl]acetamide], the EC50 is 0.01 to 10 µM.
For `COc1c(C)ccc2c(CC(=O)Nc3ncc(C)s3)coc12` [Example 86, 2-(7-Methoxy-6-methyl-benzofuran-3-yl)-N-(5-methylthiazol-2-yl)acetamide] the value was 0.01 to 10 µM.
As for `COCc1cnc(NC(=O)Cc2coc3c(Cl)c(C)ccc23)s1` [Example 89, 2-(7-Chloro-6-methyl-benzofuran-3-yl)-N-[5-(methoxymethyl)thiazol-2-yl]acetamide], the EC50 lay within 0.01 to 10 µM.
For `C=CCN(C(=O)Cc1coc2cc(C)ccc12)c1nc(-c2ccc(S(C)(=O)=O)cc2)cs1` [Example 70, N-Allyl-2-(6-methylbenzofuran-3-yl)-N-[4-(4-methylsulfonylphenyl)thiazol-2-yl]acetamide] the value was 0.01 to 10 µM; for `CC(=O)NCc1ccc(-c2csc(NC(=O)Cc3coc4cc(C)c(C(C)C)cc34)n2)o1` [Example 1, N-[4-[5-(Acetamidomethyl)-2-furyl]thiazol-2-yl]-2-(5-isopropyl-6-methyl-benzofuran-3-yl)acetamide], 10 to 100 µM.
As for `COCc1cnc(NC(=O)Cc2coc3cc(Cl)ccc23)s1` [Example 56], the figure is 0.01 to 10 µM; as for `Cc1ccc2c(CC(=O)Nc3ncc(C(F)(F)F)s3)coc2c1C` [Example 99, 2-(6,7-Dimethylbenzofuran-3-yl)-N-[5-(trifluoromethyl)thiazol-2-yl]acetamide], 0.01 to 10 µM.
For `COCc1cnc(NC(=O)Cc2coc3c(Cl)c(Cl)ccc23)s1` [Example 93, 2-(6,7-Dichlorobenzofuran-3-yl)-N-[5-(methoxymethyl)thiazol-2-yl]acetamide], the EC50 was in the range of 0.01 to 10 µM.
For `Cc1ccc2c(CC(=O)N(c3ccc(SC(F)F)cc3)c3nc4ccccc4s3)coc2c1` [Example 102, N-(1,3-Benzothiazol-2-yl)-N-[4-(difluoromethylsulfanyl)phenyl]-2-(6-methylbenzofuran-3-yl)acetamide] the value was 0.01 to 10 µM; for `COc1ccc2c(CC(=O)Nc3nccs3)coc2c1` [Example 2, 2-(6-Methoxybenzofuran-3-yl)-N-thiazol-2-yl-acetamide], 10 to 100 µM; for `Cc1ccc2c(CC(=O)Nc3nc(-c4cccs4)cs3)coc2c1` [Example 27, 2-(6-Methylbenzofuran-3-yl)-N-[4-(2-thienyl)thiazol-2-yl]acetamide], 0.01 to 10 µM.
For `CC(=O)NCc1ccc(-c2csc(NC(=O)Cc3coc4cc5c(cc34)CCC5)n2)o1` [Example 19, N-[4-[5-(Acetamidomethyl)-2-furyl]thiazol-2-yl]-2-(6,7-dihydro-5H-cyclopenta[f]benzofuran-3-yl)acetamide] the value was 10 to 100 µM; for `Cc1cnc(NC(=O)Cc2coc3c(Cl)c(Cl)ccc23)s1` [Example 75, 2-(6,7-Dichlorobenzofuran-3-yl)-N-(5-methylthiazol-2-yl)acetamide], 0.01 to 10 µM; for `COc1ccc2c(CC(=O)Nc3ncc(C)s3)coc2c1C` [Example 79, 2-(6-Methoxy-7-methyl-benzofuran-3-yl)-N-(5-methylthiazol-2-yl)acetamide], 0.01 to 10 µM.
As for `COc1ccc2c(CC(=O)Nc3ncc(C)s3)coc2c1` [Example 43, 2-(6-Methoxybenzofuran-3-yl)-N-(5-methylthiazol-2-yl)acetamide], the figure is 0.01 to 10 µM.
Turning to `Cc1cnc(NC(=O)Cc2coc3cc4c(cc23)CCC4)o1` [Example 17, 2-(6,7-Dihydro-5H-cyclopenta[f]benzofuran-3-yl)-N-(5-methyloxazol-2-yl)acetamide], the EC50 was in the range of 10 to 100 µM.
For `Cc1cnc(NC(=O)Cc2coc3cc4c(cc23)OCO4)s1` [Example 34, 2-Furo[3,2-f][1,3]benzodioxol-7-yl-N-(5-methylthiazol-2-yl)acetamide] the value was 0.01 to 10 µM.
For `Cc1cnc(NC(=O)Cc2coc3c(C)cccc23)s1` [Example 10, 2-(7-Methylbenzofuran-3-yl)-N-(5-methylthiazol-2-yl)acetamide] the value was 10 to 100 µM; for `N#Cc1cnc(NC(=O)Cc2coc3c(Cl)c(Cl)ccc23)s1` [Example 73, N-(5-Cyanothiazol-2-yl)-2-(6,7-dichlorobenzofuran-3-yl)acetamide], 0.01 to 10 µM.
For `CC(C(=O)Nc1ncc(C(F)(F)F)s1)c1coc2cc(Cl)ccc12` (stereo not shown) [Example 66, 2-(6-Chlorobenzofuran-3-yl)-N-[5-(trifluoromethyl)thiazol-2-yl]propanamide] the value was 0.01 to 10 µM; for `Cc1ccc2c(CC(=O)Nc3nc(-c4ccncc4)cs3)coc2c1` [Example 31, 2-(6-Methylbenzofuran-3-yl)-N-[4-(4-pyridyl)thiazol-2-yl]acetamide], 0.01 to 10 µM.
